# B1: At1g25290 L: L-form Arabidopsis At1g25290 rhomboid protease, contains the RVL cyclin-binding domain (protein, listed as Arabidopsis thaliana)
# chain: MVSVSLSHHNLWPPESGSTAFRGFATAASVHACHHVSRHLRLDFHLRSSLKKLQHFSDDARMKFARYQRVFVFNGANFLKSRVDIRLSQSSPFVCFFNGGESRLNPRGGEEGSSNPETSKRNTVNGRRWTNVLLAINVIMYIAQIASDGKVLTWGAKINSLIERGQLWRLATASVLHANPMHLMINCYSLNSIGPTAESLGGPKRFLAVYLTSAVARVLGSAMSYWFNKAPSVGASGAIFGLVGSVAVFVIRHKQMVRGGNEDLMQIAQIIALNMAMGLMSRR
# B2: UBAC2: human UBAC2 isoform 1, fusion between a rhomboid pseudoprotease sequence and ubiquitin-associating domains (protein, listed as Homo sapiens)
# chain: MQYFFGITAASNLPSGFLAPVFALFVPFYCSIPRVQVAQILGPLSITNKTLIYILGLQLFTSGSYIWIVAISGLMSGLCYDSKMFQVHQVLCIPSWMAKFFSWTLEPIFSSSEPTSEARIGMGATLDIQRQQRMELLDRQLMFSQFAQGRRQRQQQGGMINWNRLFPPLRQRQNVNYQGGRQSEPAAPPLEVSEEQVARLMEMGFSRGDALEALRASNNDLNVATNFLLQH
# Tests used:
# yeast [1] = experiment: Sensitization of yeast to fungicidal agents AmB and Nys; format: cell-based, Saccharomyces cerevisiae; conditions: for yeast cell survival, fungicide alone: sub-lethal levels (1% AmB, 0.5% Nys), no rhomboid protein; for sensitization of yeast to antifungals AmB and Nys: exogenous protein co-delivered with sub-lethal AmB and Nys, as Example 13
# Procedure: Experiments were conducted to assess the ability of the Arabidopsis At1g74130 proteins or variants to sensitize yeast to the antifungal agents Amphotericin B (AmB) and Nystatin (Nys). Overall, these assays were conducted in a manner similar to that designed for bacteria (Example 9). In addition to the components mixed with the added proteins or variants, the antifungal AmB was also utilized as part of the delivery system. The AmB drug contains small quantities of the detergent deoxycholate, which may also assist in the delivery of proteins into the cell, as well as function as a pore forming agent itself. […] The effective co-delivery sub-lethal concentrations of the two antifungal agents or protein had little or no effect when provided individually. FIGS. 17 and 18 show results of the yeast sensitivity assays for AmB and Nys. […] In FIG. 17, the “Yeast Control” bars represent yeast cells given mock treatments with culture media (YPD) alone, YPD plus 1% AmB, YPD plus 0.5% Nys, and YPD plus 1% AmB and 0.5% Nys, respectively. The “BSA Control” bars represent another set of mock treatments with yeast cells. This set utilized the same set-up as the Yeast Control set but with added control bovine serum albumin proteins (BSA) (dissolved in the elution buffer, the same buffer used for the purification of the recombinant At1g74130 rhomboid proteins or variants). These assays represent another variation of negative controls for rhomboid protein. The “Elution Control” bars represent yeast cells mock treated using the same set-up as in the Yeast Control set but with added elution buffer alone. This variation of control assays was designed to assess for potential toxic impacts when combining elution buffer and the listed drugs, as well any effects originating from components of the elution buffer itself. The composition of the elution buffer is provided above in Example 5. With the exception of Nys, these treatments represent the first step and occur for 45 minutes before the second step when exposure to fungicides takes place. Within each set of bars, where applicable, the second 15-minute step treatment occurred with a sub-lethal dose of Nys. After a total of one hour, the treated yeast cells were plated on non-selective YPD agar plates. Plates were grown 2-3 days at 27-30° C. and assessed for surviving cell numbers (measuring cell death). Images were also taken to document cell and colony growth characteristics.
# In the experimental assays, the sensitizing properties of At1g74130 or variants (sensitizing variants) were tested by adding 10 ug protein (At1g74130 or variants in elution buffer) to yeast cells (300-500 cells). To reiterate in all cases, the components were added to cultures and mixed for one hour, where Nys was added and incubated for the last 15 minutes of the treatment. Pre-treatment was designed to permit AmB and At1g74130 proteins to establish and work prior to adding Nys. After the one hour incubation, 500 cells were plated on non-selective YPD agar media and grown for 48 hours at 30′C.
# The sub-lethal levels of fungicides to use in these assays were determined using dosage experiments. These assays were conducted on yeast cells without added rhomboid proteins or variants. The dosages of AmB tested ranged from 0 to 5% (v/v). […] Likewise, the Nys level was determined using a range of 0.5 to 2.5%. Yeast cells were treated for one hour with fungicides in a total volume of 400 μl YPD media before plating.
# Since both the AmB buffer contained small quantities of detergent (deoxycholate being the main one), an experiment was done in which different amounts (1% and 10%) of deoxycholate were added to yeast cells to ascertain any effects. Adding deoxycholate had little effect on yeast.
# This set of yeast assays was conducted in the same manner described above (Example 13) and employed the same controls and combinations. […]
# yeast [2] = experiment: as above; format: cell-based, Saccharomyces cerevisiae; conditions: range of 0 to 1% (v/v), no rhomboid protein, one hour
# [3] = system: ampicillin resistant E. coli; experiment: Sensitization of bacteria to ampicillin by exogenous rhomboid protein; format: cell-based, Escherichia coli
# Procedure: Experiments were conducted to assess the ability of At1g74130 proteins or variants to sensitize bacteria to the antibiotic ampicillin, using “super-resistant” E. coli (multi-copy pET20b plasmid-based ampicillin-resistant lab strains). This model is considered the so-called “SuperBug” model, as commonly referred to in the public domain and media.
# Control assays were conducted on cells without added At1g74130 or variants (sensitizing variants) to determine the delivery system to use and the appropriate levels of ampicillin to use. Control assays were also conducted to determine if the 5% (v/v) DMSO delivery system exerted any effects. Bacterial cells, usually 800-1000, were mock treated with Luria Broth (LB) media or 5% (v/v) DMSO for 15 minutes prior to exposure to a 30-45 minute exposure to ampicillin (1.25 mg/ml or 1.5 mg/ml). Total volumes of 200 μl were used in these assays. The treated-exposed cells were then plated onto non-selective LB agar plates and allowed to grow overnight to assess the level of cell death or susceptibility to ampicillin. The ampicillin range found useful for these assays was between 1.25 mg/ml to 1.5 mg/ml. This range mirrored the observations reported in an earlier section above with transgenic bacterial cells and ampicillin susceptibility. […]
# bacteria = experiment: Sensitization of bacteria to tetracycline by exogenous rhomboid protein; format: cell-based, Escherichia coli; conditions: tetracycline 15 ug/ml
# Procedure: Experiments were conducted to assess the ability and the utility of At1g74130 protein variants to sensitize bacteria to another antibiotic, tetracycline. In bacteria, tolerance or resistance to tetracycline is facilitated by a mechanism different from the ampicillin resistance assayed in Example 9. Unlike the breakdown of ampicillin outside the bacterial cells by secreted ampicilliase, tetracycline resistance in bacteria is based largely on the continual and effective pumping of tetracycline out of the cell by proteinaceous membrane pumps. To assess the utility of the At1g74130 for sensitizing bacteria to tetracycline, these bacterial assays were conducted in the same manner described in Example 9. The same controls and combinations were used. The final treatment level of tetracycline used in place of the ampicillin treatment was 15 ug/ml.
# Experiments were conducted to assess the ability and the utility of a human rhomboid type or variant to sensitize bacteria to tetracycline. These bacterial assays were conducted in the same manner described above for the other rhomboid variants and in Example 9. The same controls and combinations were used. The At1g74130 L was the control for UBAC2 in this set of assays. The previously observed behaviours and responses were not observed for UBAC2 in this setting with the antibiotic tetracycline (FIG. 16).
molecule,measurement,setting,value
"C[C@@H]1[C@H](O)[C@@H](C)/C=C/C=C/C=C/C=C/C=C/C=C/C=C/[C@H](O[C@@H]2O[C@H](C)[C@@H](O)[C@H](N)[C@@H]2O)C[C@@H]2O[C@](O)(C[C@@H](O)C[C@@H](O)[C@H](O)CC[C@@H](O)C[C@@H](O)CC(=O)O[C@H]1C)C[C@H](O)[C@H]2C(=O)O [AmB, Amphotericin B, reference compound]","yeast cell survival, fungicide alone",yeast [1],small reduction in yeast cell survival
same,surviving yeast colonies in dosage experiment,yeast [2],no significant differences
"C[C@@H]1[C@H](O)[C@@H](C)/C=C/C=C/CC/C=C/C=C/C=C/C=C/C(O[C@H]2O[C@H](C)[C@@H](O)[C@H](N)[C@@H]2O)CC2O[C@](O)(CC(O)C(O)CCC(O)CC(O)CC(O)CC(=O)O[C@H]1C)CC(O)C2C(=O)O (stereo partly drawn) [Nys, Nystatin, reference compound]","yeast cell survival, fungicide alone",yeast [1],small reduction in yeast cell survival
deoxycholate,effect on yeast,yeast [1]; 1% and 10% added to yeast cells,little effect
"CC1(C)S[C@@H]2[C@H](NC(=O)[C@H](N)c3ccccc3)C(=O)N2[C@H]1C(=O)O [ampicillin, reference compound]",effect on bacteria when provided individually,"[3]; effective co-delivery concentration, without protein",no effects
B1,sensitization of bacteria to ampicillin,"[3]; exogenous protein, same manner as Example 9",no activity
same,sensitization of yeast to antifungals AmB and Nys,yeast [1],no activity
B2,sensitization of yeast to antifungals AmB and Nys,yeast [1],increased the sensitivity
same,sensitization of bacteria to tetracycline,bacteria,not observed

# — patent publication US20160129078A1, “Rhomboid Proteins and Uses Thereof” (Queen's University at Kingston, priority 2014, published 2016)
